Results from ChEMBL document CHEMBL5046260, “Anti-inflammatory Dimeric Tetrahydroxanthones from an Endophytic Muyocopron laterale” (J Nat Prod, 2022).

Assays:
RAW264.7 [1] = experiment: Antiinflammatory activity in mouse RAW 264.7 cells assessed as inhibition of LPS-induced NO production at 10 uM measured after 24 hrs by Griess assay relative to control; type: functional; design: scale not given: the % may be the effect or the level left
RAW264.7 [2] = experiment: Antiinflammatory activity in mouse RAW 264.7 cells assessed as inhibition of LPS-induced NO production measured after 24 hrs by Griess assay; type: functional, cell-based; settings: RAW264.7, 24 h

SMILES | IC50 (RAW264.7 [2]) | Activity (RAW264.7 [1])
CO[C@H]1CC(=O)O[C@@H]1[C@@]1(C)CC(=O)c2c(cc(C)c(-c3c(C)cc(O)c4c3O[C@](C)([C@H]3OC(=O)C[C@@H]3OC)CC4=O)c2O)O1 | > 10 µM | 7.6%
CO[C@H]1CC(=O)O[C@@H]1[C@@]1(C)CC(=O)c2c(cc(C)c(-c3c(C)cc4c(c3O)C(=O)C[C@](C)([C@H]3OC(=O)C[C@@H]3OC)O4)c2O)O1 | 5.2 µM | 72%
CO[C@H]1CC(=O)O[C@@H]1[C@@]1(C)CC(=O)c2c(cc(C)c(-c3c(C)cc4c(c3O)C(=O)C[C@@](C)([C@H]3OC(=O)C[C@@H]3OC)O4)c2O)O1 | > 10 µM | 16.2%
CO[C@H]1CC(=O)O[C@@H]1[C@]1(C)CC(=O)c2c(O)cc(C)c(-c3c(C)cc4c(c3O)C(=O)C3=C(O)C[C@H](OC)[C@H](O)[C@]3(C)O4)c2O1 | > 10 µM | 52.7%
CO[C@H]1CC(=O)O[C@@H]1[C@]1(C)CC(=O)c2c(O)cc(C)c(-c3c(C)cc4c(c3O)C(=O)C3=CC[C@H](OC)[C@H](O)[C@]3(C)O4)c2O1 | > 10 µM | 33.2%
CO[C@H]1CC(=O)O[C@@H]1[C@]1(C)CC(=O)c2c(cc(C)c(-c3c(C)cc4c(c3O)C(=O)C[C@@](C)([C@H]3OC(=O)C[C@@H]3OC)O4)c2O)O1 | > 10 µM | 5.9%
COc1cc(/C=C/C(=O)CC(=O)/C=C/c2ccc(O)c(OC)c2)ccc1O [CURCUMIN] | 2.2 µM | 79.2%

Now from value to molecule, other results behind:

IC50 (RAW264.7 [2]) | SMILES | Activity (RAW264.7 [1])
> 10 µM | CO[C@H]1CC(=O)O[C@@H]1[C@]1(C)CC(=O)c2c(cc(C)c(-c3c(C)cc4c(c3O)C(=O)C3=C(O)C[C@H](OC)[C@H](O)[C@]3(C)O4)c2O)O1 | 36.6%
> 10 µM | CO[C@H]1CC(O)=C2C(=O)c3c(cc(C)c(-c4c(C)cc5c(c4O)C(=O)C4=C(O)C[C@H](OC)[C@H](O)[C@]4(C)O5)c3O)O[C@@]2(C)[C@H]1O | 52.7%
5.1 µM | CO[C@H]1CC(=O)O[C@@H]1[C@@]1(C)CC(=O)c2c(cc(C)c(-c3c(C)cc4c(c3O)C(=O)C3=CC[C@H](OC)[C@H](O)[C@]3(C)O4)c2O)O1 | 84.4%
1.3 µM | CO[C@H]1CC=C2C(=O)c3c(cc(C)c(-c4c(C)cc5c(c4O)C(=O)C4=C(O)C[C@H](OC)[C@H](O)[C@]4(C)O5)c3O)O[C@@]2(C)[C@H]1O | 89.8%
> 10 µM | CO[C@H]1CC(=O)O[C@@H]1[C@@]1(C)CC(=O)c2c(cc(C)c(-c3c(C)cc4c(c3O)C(=O)C3=C(O)C[C@H](OC)[C@H](O)[C@]3(C)O4)c2O)O1 | 13.2%
